Measurements as given in article PMC6321136, “Combined In Vitro Studies and in Silico Target Fishing for the Evaluation of the Biological Activities of Diphylleia cymosa and Podophyllum hexandrum” (Molecules, 2018).
≈ marks a conversion by molar mass, not a printed value.

How the values were obtained:
[1] = target: T1, acetylcholinesterase enzyme (Electropardus electricous type VI-S) (Electrophorus electricus, UniProt O42275); assay: AChE bioautographic assay (TLC); assay type: biochemical; set-up: key: -: not active; +: slight inhibition; ++++: strong inhibition; details: intensity of white bands
T1 construct: purchased Sigma-Aldrich, St. Louis, MO, USA type VI-S (catalogue number not given)
T1 sequence (O42275 24-633): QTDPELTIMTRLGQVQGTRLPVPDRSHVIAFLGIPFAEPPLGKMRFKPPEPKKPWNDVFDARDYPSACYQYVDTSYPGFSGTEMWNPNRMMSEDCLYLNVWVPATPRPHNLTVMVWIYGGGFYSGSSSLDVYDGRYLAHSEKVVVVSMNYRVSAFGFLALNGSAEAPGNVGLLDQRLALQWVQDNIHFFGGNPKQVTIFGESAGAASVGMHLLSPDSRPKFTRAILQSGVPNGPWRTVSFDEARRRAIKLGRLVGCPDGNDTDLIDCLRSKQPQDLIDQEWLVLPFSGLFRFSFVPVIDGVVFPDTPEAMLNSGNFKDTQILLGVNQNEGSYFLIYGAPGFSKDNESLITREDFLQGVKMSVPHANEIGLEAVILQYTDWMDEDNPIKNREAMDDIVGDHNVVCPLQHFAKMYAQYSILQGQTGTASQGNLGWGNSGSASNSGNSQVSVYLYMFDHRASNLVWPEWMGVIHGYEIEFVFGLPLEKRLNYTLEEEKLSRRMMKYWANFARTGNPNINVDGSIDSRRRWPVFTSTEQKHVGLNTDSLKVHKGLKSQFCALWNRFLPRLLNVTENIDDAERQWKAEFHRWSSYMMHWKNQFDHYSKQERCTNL
Description: The bioautographic assay was performed by thin layer chromatography (TLC) according to the method proposed by Marston, Kissling and Hostettman. The extracts were solubilized in methanol (Merck) at 20 mg/mL, and a portion of 10 μL of this solution was applied on a TLC plate (silica gel 60 F254, Merck, Darmstadt, Germany), which was eluted with CHCl3:MeOH (9:1). The acetylcholinesterase enzyme (Electropardus electricous type VI-S, Sigma-Aldrich, St. Louis, MO, USA) solution was prepared by diluting 1 KU of the enzyme in 30 mL of Tris/HCl buffer, pH 7.8, with the addition of 30 mg of bovine serum albumin (BSA). The enzyme solution was sprayed on the TLC plate and incubated in a humid chamber at 37 °C for 20 min. The substrate solution was prepared using 1-naphthyl acetate (2.5 mg/mL) and Fast Blue B salt (2.5 mg/mL), and sprayed on the TLC plate after the incubation period. […] The result was expressed by the intensity of the white bands observed.

[2] = target: T2, AChE from Electropardus electricous type VI-S (Electrophorus electricus, UniProt O42275); assay: AChE inhibition microplate assay (Ellman); assay type: biochemical; details: 400 μg/mL; read-out: Inhibition of AChE Microplate (%I)
T2 construct: purchased Sigma-Aldrich, St. Louis, MO, USA type VI-S (catalogue number not given)
T2 sequence (O42275 24-633): as above
Description: AChE inhibition assay was performed on a 96-well microplate according to Ellman’s method with adaptations. Initially, the extracts were solubilized on MeOH, at 20 mg/mL, and diluted to 4 mg/mL using Tris/HCl buffer solution (50 mM, pH 8.0). A portion of 25 µL of the samples (4 mg/mL) were added to the wells of the microplate, as well as 50 μL of 0.1% BSA solution in Tris/HCl Buffe (pH 8.0), 125 μL of DTNB in Tris/HCl (3 mM) containing NaCl (10 mM) and MgCl2 (20 mM). Subsequently, 25 μL of the ATCI aqueous solution (15 mM) was added to all wells. Then, a background reading was performed at 405 nm using microplate reader (Multiskan Go, Thermo Scientific, Whaltham, MA, USA). The enzymatic reaction was initiated after the addition of 25 µL of AChE solution (AChE from Electropardus electricous type VI-S, 0.2 U/mL, Sigma-Aldrich, St. Louis, MO, USA) in Tris/HCl buffer (50 mM, pH 8.0) containing 0.1% BSA. The kinetic cycle was performed in a period of 25 min, with readings at 5 min intervals, at 405 nm. Physostigmine (Eserine, Sigma, St. Louis, MO, USA) was employed as the positive control. […] The assay was performed in triplicate and the % of inhibition (%I) was calculated according to the following equation: %I = [(a − b)/a] × 100, where a = ΔA/min of control; b = ΔA/min of test sample; ΔA = change in absorbance between time x and time zero. […]

[3] = Thiobarbituric acid reactive substances (TBARS) assay; set-up: species or system bovine
Description: The evaluation of antioxidant activity using the TBARS assay, with adaptations. Briefly, the samples were solubilized in methanol (50.0 to 31.25 μg/mL) and a portion of 25 μL of each extract solution was added to 10 mL test tubes in triplicate (two reaction tubes and one control). The tubes corresponding to the blank, negative and positive controls were prepared by adding 25 μL of deionized water, MeOH or propylgalate (Sigma, St. Louis, MO, USA, 0.1 mM), respectively. The phospholipid liposomes were prepared using bovine brain extract type VII (Sigma Aldrich, St. Louis, MO, USA, 10 mg/mL) in phosphate buffered saline (PBS) solution. The suspension was subjected to an ultrasonic bath until the formation of the liposomes. […] The butanolic phase was removed and transferred to a 96-well microplate, and the absorbance was recorded on a Multiskan Go microplate reader (Thermo Scientific, Whaltham, MA, USA) at 532 nm. The percentage of inhibition (%I) of lipid peroxidation was calculated as: %I = ((AC − AS)/AC) × 100 where AC is the absorbance of control, AS is the absorbance of samples. Assays were performed in triplicate and IC50 values were determined by non-linear regression using GraphPad Prism, version 6.0 (GraphPad Software, San Diego, CA, USA). […]

[4] = DPPH radical scavenger activity
Description: The evaluation of the antioxidant activity using the 2,2-diphenyl-1-picrylhydrazyl radical (DPPH) was performed according to the method proposed by Mensor et al., with adaptations. The samples were dissolved in MeOH at concentrations ranging from 1.0 to 200 μg/mL. A portion of 250 μL of each sample was added to a 96-well microplate. MeOH and pyrogallol (50 µg/mL) were employed as negative and positive controls, respectively. Then, 100 μL of either MeOH (blank wells) or DPPH solution (120 μg/mL, reaction wells) was added to the microplate. The reading was performed on a microplate reader (EL808IU-Biotek model, Biotek, Winooski, VT, USA), at 5 min intervals for a total of 45 min, at 515 nm. The percentage of radical scavenging activity (%RSA) was calculated using the following equation: % RSA = ((AC − AS)/AC) × 100, where AC is the absorbance of control and AS is the absorbance of samples taken at 35 min. The results were expressed in EC50 (effective concentration for 50% capture of the radicals) determined by non-linear regression using GraphPad Prism, version 6.0.

[5] = β-Carotene/linoleic acid co-oxidation assay
Description: The evaluation of the antioxidant activity using the β-carotene/linoleic acid co-oxidation system was performed according to Duarte-Almeida et al., with adaptations. The extracts were solubilized in MeOH (2.2 mg/mL) and further diluted to concentrations ranging from 3.125 to 200 μg/mL. An aliquot of 25 μL of sample solutions were added in the 96-well microplate. 25 mg of linoleic acid and 100 mg Tween 20 (Sigma, St. Louis, MO, USA) were added to a round-bottom flask containing 1 mL of a β-carotene solution (1 mg/mL, Sigma, St. Louis, MO, USA) in chloroform. The latter was removed in a rotatory evaporator and, then, 50 mL of aerated water was added to the flask, affording the β-carotene emulsion. Portions of 250 μL of the freshly prepared emulsion were added to the wells corresponding to the odd columns of a microplate. […] Readings were performed immediately at 470 nm. After the first reading, the microplate was incubated at 45 °C and the kinetic cycle was performed with readings at 15 min intervals for a total of 120 min. The antioxidant activity was expressed as % of inhibition of lipid peroxidation (%I), using the formula (I% = Ac (initial abs − Final abs) − Aam (final abs − Initial abs)/Ac × 100). Assays were performed in triplicate and IC50 values were determined by non-linear regression using GraphPad Prism, version 6.0 (GraphPad Software, San Diego, CA, USA).

AChE [6] = tested on: AChE; set-up: method as in Itoh et al. [85]; details: 3 mg/kg; ref Itoh et al. [85]; cited from earlier work
AChE [7] = tested on: AChE; set-up: method as in El-Hassan et al. [86]; details: ref El-Hassan et al. [86]; cited from earlier work

SMILES: CNC(=O)Oc1ccc2c(c1)[C@]1(C)CCN(C)[C@@H]1N2C [Physostigmine, reference compound]
- Inhibition of AChE TLC [1]: ++++
- inhibition at 400 µg/mL [2]: 89.8 ± 1.16%

SMILES: CCCOC(=O)c1cc(O)c(O)c(O)c1 [Propylgalate, propylgalate, reference compound]
- Antioxidant Activity (IC50-µg/mL) TBARS Assay [3]: <20 µg/mL

SMILES: Oc1cccc(O)c1O [Pyrogallol, pyrogallol, reference compound]
- Antioxidant Activity (IC50-µg/mL) DPPH Radical Sequestration [4]: 1.14 ± 0.15 µg/mL

SMILES: O=c1c(O)c(-c2ccc(O)c(O)c2)oc2cc(O)cc(O)c12 [Quercetin, quercetin, reference compound]
- Antioxidant Activity (IC50-µg/mL) β-Carotene/linoleic Acid [5]: 0.3 ± 0.1 µg/mL

SMILES: COc1cc2c(c(OC)c1OC)-c1c(cc(OC)c(OC)c1OC)C[C@](C)(O)[C@@H](C)C2 [Schisandrin]
- activity in vivo (AChE [6]): active

SMILES: COc1cc([C@H]2OC[C@H]3[C@@H]2CO[C@@H]3c2cc(OC)c(O)c(OC)c2)cc(OC)c1O [Syringaresinol]
- IC50 AChE inhibition in vitro (AChE [7]): 200 µg/mL (≈ 478 µM)
